Measurements: patent US20060078499A1, “Use of hedgehog agonist to treat depression” (priority 2003, published 2006)

What was measured:
[1] = system: 129/SvEv mice; experiment: Novelty-suppressed feeding test (NSF); assay type: in vivo, mouse
Description: The Novelty-suppressed feeding test was carried out during a 5-min period as previously described (Santarelli et al., 2001). Briefly, the testing apparatus consisted of a plastic box, 50×50×20 cm. The floor was covered with approximately 2 cm of wooden bedding. Twenty-four hours prior to behavioral testing, all food was removed from the home cage. At the time of testing, a single pellet of food (regular chow) was placed on a white paper platform positioned in the center of the box. An animal was placed in a corner of the maze and a stopwatch was immediately started. The measure of interest (chewing) was scored when the mouse was sitting on its haunches and biting with the use of forepaws. Immediately after this test, mice were transferred to their home cage and the amount of food consumed in 5 min was measured (home cage food consumption). […] Mice were always tested during the light period.
The NSF is a conflict test in which food-deprived animals are presented with a food pellet placed in the center of a brightly-lit open field. This paradigm elicits competing motivations: the drive to eat the food pellet, and the fear of venturing into the center of the arena.
Haloperidol, an antipsychotic that antagonizes D2 dopamine receptors, was used as a negative control because it is devoid of antidepressant activity in humans. NSF performance was assessed after either 5 or 28 days of oral drug administration.

[2] = system: BrdU-positive cells in the dentate gyrus; experiment: BrdU labeling of cell proliferation, sacrifice 24 hr after BrdU; assay type: in vivo, mouse; settings: for BrdU-labeled cells in dentate gyrus: 27 days of treatment, 24 hours after BrdU; for cell proliferation (BrdU-labeled cells in the SGZ): 1 mg/kg/day mini pumps
Description: (§1) To assess the effect of antidepressant or X-irradiation treatments on the number of BrdU-positive cells, mice were administered BrdU (4×75 mg/kg i.p., dissolved in saline, every 2 hr; Roche Diagnostic, Indianapolis, Ind.) and sacrificed 24 hr after the last BrdU injection (FIG. 2A, 3B, 5C-D). To determine cell survival and phenotype after the various antidepressant treatments, fluoxetine, imipramine and vehicle-treated mice were allowed to survive for 28 days after the last BrdU injection (FIG. 2C-D, 3C). After deep anesthesia with a mixture of ketamine/xylazine (100 mg/kg and 7 mg/kg respectively), mice were transcardially perfused (cold saline for 2 min, followed by 4% cold paraformaldehyde/0.1 M phosphate buffer for 5 min) and brains were collected for immunohistochemistry. All brains were post-fixed overnight in 4% paraformaldehyde at 4° C., then cryoprotected in 30% sucrose and stored at 4° C. Serial sections of the brains were cut (35 μm sections) through the entire hippocampus (plates 41-61; Franklin and Paxinos, 1997) on a cryostat and stored in PBS with 0.1% NaN3. For DAB staining, sections were slide-mounted and boiled in citric acid, pH 6.0, for 5 min, rinsed with PBS, and treated with 0.01% trypsin in Tris/CaCl2 for 10 min. Brain sections were incubated for 30 min with 2N HCl and blocked with 5% NGS (Jackson ImmunoResearch, West Grove, Pa.). Sections were then incubated over night at room temperature with anti-mouse BrdU (1:100; Becton-Dickinson). After washing with PBS, sections were incubated for 1 hr with secondary antibody (1:200 biotinylated goat anti-mouse; Sigma-Aldrich, St. Louis, Mo.) followed by amplification with an avidin-biotin complex (Vector Laboratories). The staining was visualized with DAB (Sigma-Aldrich, St. Louis, Mo.). For fluorescent double-labeling, the DNA-denaturation procedure consisted of the following steps: 2 hr incubation in 50% formamide-2×SSC at 65° C., 5 min rinse in 2×SSC, 30 min incubation in 2N HCl at 37° C., and 10 min rinse in 0.1 M boric acid, pH 8.5. Sections were then incubated in TBS-0.1% Triton X-100 (Tx)-5% normal donkey serum (NDS) for 30 min, followed by anti-rat BrdU primary antibody (1:100; Accurate Westbury, N.Y. or Serotec, Oxford, UK) in TBS/NDS/Tx for 24 hrs at 4° C. in combination with either a mouse monoclonal antibody to NeuN (1:500; Chemicon, Temecula, Calif.) or a rabbit polyclonal antibody to GFAP (1:800; DAKO, Carpinteria, Calif.). The fluorescent secondary antibodies used were biotin-conjugated donkey anti-rat (1:200) plus streptavidin Cy2 (1:200), donkey anti-mouse Cy3 (1:500), or donkey anti-rabbit Cy3 (1:500) (Jackson ImmunoResearch, West Grove, Pa.). Fluorescent images were taken with a Bio-Rad MRC 1000 confocal laser scanning system coupled to a Zeiss Axiovert 100 inverted microscope. For each image acquisition, a Kalman average of five frames was used. For quantification of BrdU/NeuN or BrdU/GFAP double-labeled cells, at least 50 BrdU-positive cells per animal were analyzed using Z-plane sectioning (1 μm steps).
It has recently been shown that various antidepressant treatments, including fluoxetine, increase neurogenesis in the dentate gyrus (DG) of the rat hippocampus (Malberg et al., 2000). […] To confirm that chronic fluoxetine induces changes in the number of BrdU-positive cells in the DG, we treated adult mice with either vehicle or fluoxetine for 5, 11 or 28 days. On the final day of treatment, all animals were injected with BrdU (four injections of 75 mg/kg), sacrificed 24 hours later, and perfused for immunohistochemistry. The treatment with fluoxetine caused a 60% increase in the number of BrdU positive cells in the DG of animals after either 11 or 28 days, but had no effect in animals treated for 5 days (FIGS. 2A and B).
(§2) In this set of experiments, wild type and 5-HT1A receptor KO mice were injected with BrdU following 27 days of treatment with fluoxetine, imipramine, or vehicle. […]

[3] = system: BrdU-positive cells within the SGZ and granule cell layer; experiment: Survival and phenotype of BrdU-positive cells 28 days after BrdU injection; assay type: in vivo, mouse; settings: for BrdU-positive cells surviving 28 days after BrdU injection: chronic treatment
Description: as §1
To determine the fate of hippocampal cells labeled with BrdU following chronic treatment with either fluoxetine or vehicle, animals were allowed to survive for a period of four weeks after injection of BrdU. During this time fluoxetine oral treatment was suspended and animals were returned to tap water. Brain sections were co-labeled with antibodies raised against BrdU and either the mature neuronal marker NeuN or the astroglial marker GFAP. […] The percentage of BrdU-positive cells within the SGZ and granule cell layer that expressed NeuN was 70±2%, and the percentage of BrdU-positive cells that expressed GFAP was 15±3%. These proportions were not influenced by the antidepressant treatment, as previously reported (Malberg et al., 2000).
as §2

[4] = 129/SvEv, mouse, in vivo, po
Description: Fluoxetine (Eli Lilly, Indianapolis, Ind.), Imipramine (Sigma-Aldrich, St. Louis, Mo.), Desipramine (Sigma-Aldrich, St. Louis, Mo.) and Haloperidol (Sigma-Aldrich, St. Louis, Mo.) were dissolved in tap water at a concentration of 80, 160, 160, and 8 mg/L, respectively. These concentration were established based on the average drinking amount and average weight of the mice used in the study to achieve a final dose of 10 (fluoxetine), 20 (imipramine and desipramine) and 1 (haloperidol) mg/kg/day. […] Vehicle animals received tap water. 8-hydroxy-2-(di-n-propylamino) tetralin (8-OH-DPAT, Sigma-Aldrich, St. Louis, Mo.) was dissolved in sterile saline (0.9% NaCl) at a concentration of 4.5 mg/ml, and delivered through Alzet osmotic mini-pumps (model 2004, Alzet, Cupertino, Calif.) implanted subcutaneously 28 days prior to behavioral testing. The final average dose delivered was 1 mg/kg/day. Sham mice were implanted with mini-pumps containing sterile saline.

[5] = system: BALB/c mice; experiment: Chronic unpredictable stress paradigm (CUS); assay type: in vivo, mouse; settings: for state of the fur (coat score) / grooming latency: 10 mg/kg/day i.p.; for weight loss induced by stress: data not shown
Description: The stress regimen used is a variant of the chronic mild stress procedures described by Willner et al. (Willner et al., 1992). Mice were subjected to various and repeated unpredictable stressors for a period of five weeks (Griebel et al., 2002). The different stressors used were: alterations of the bedding (repeated sawdust changing, removal of sawdust, damp sawdust, substitution of sawdust with 37° C. water); cage tilting (45°); predator sounds (15 min.); cage shift (mice were positioned in the empty cage of another male); light to dark or dark to light shifts (four light/dark successions of 30 min every 24 hours); reversal of the light/dark cycle. The fluoxetine treatment (10 mg/kg/day, i.p.) started at the beginning of the third week. The state of the coat was assessed at the end of the stress regimen (end of fifth week). The total score resulted from the sum of the score of seven different body parts: head, neck, dorsal coat, ventral coat, tail, forepaws and the hindpaws. A score of 0 was given for a well-groomed coat and 1 for a spoiled coat (see Griebel, 2002). The grooming latency was assessed at the end of the sixth week. This test consisted in squirting 200 μl of a 10% sucrose solution on the mouse's snout. The latency to start grooming was then recorded.
The CUS protocol consists of the sequential application of a number of stressors, presented in a varied and unpredictable manner during 5 weeks. The continued application of these stressors produces a deterioration in the state of the coat, an impaired grooming response, and weight loss (Griebel et al., 2002; Willner et al., 1992). ADs such as fluoxetine can reverse these stress-induced effects after chronic, but not acute, administration (Griebel et al., 2002; Willner et al., 1992).
Sham and irradiated mice were subjected to five weeks of CUS, beginning two weeks after the final X-ray dose, and half of the animals in each group were administered fluoxetine (10 mg/kg/day, i.p.) from weeks 3-6. The state of each animal's fur was assessed at the end of the stress period, and assigned a score based on observations from several body regions (see methods). Fluoxetine treatment was continued for one more week, after which we measured the latency to begin grooming following application of a sucrose solution to the head of each animal.

[6] = system: BrdU-positive cells in the dentate gyrus; experiment: BrdU labeling of cell proliferation, sacrifice 24 hr after BrdU; assay type: in vivo, mouse; settings: chronic treatment
[7] = 5-HT1A knockout (-/-) mice, 28 days, vs vehicle
[8] = 5-day treatment via drinking water, compared to vehicle
[9] = 28-day treatment via drinking water, compared to vehicle
[10] = X-irradiated animals, chronic treatment
[11] = sham (non-irradiated) animals, chronic treatment
[12] = wild type (+/+) mice, 28 days, vs vehicle
[13] = four weeks after BrdU, chronic fluoxetine or vehicle, proportions not influenced by treatment

SMILES	latency to feed [1, 7]	latency to feed [1, 8]	latency to feed [1, 9]	latency to feed [1, 10]	latency to feed [1, 11]	latency to feed [1, 12]	BrdU-labeled cells in dentate gyrus ([2]; 5-HT1A receptor KO mice)	BrdU-labeled cells in dentate gyrus ([2]; wild type mice)	BrdU-positive cells surviving 28 days after BrdU injection ([3]; 5-HT1A receptor KO mice)	BrdU-positive cells surviving 28 days after BrdU injection ([3]; WT mice)	time by which steady serum levels had been achieved [4] [days]	further results
CN(C)CCCN1c2ccccc2CCc2ccccc21 [imipramine, Imipramine]	effective	had no effect	significant decreases	no such anxiolytic-like effect	significant reduction	significantly decreased	significant increase	significant increase	effective	effective	≤ 5	increase in the number of BrdU positive cells (SGZ and GCL) ([2]; both genotypes (+/+ and 5-HT1A -/-), 4 weeks of treatment): ~2 fold
CNCCC(Oc1ccc(C(F)(F)F)cc1)c1ccccc1 (stereo not shown) [fluoxetine, Fluoxetine]	insensitive	had no effect	significant decreases	no such anxiolytic-like effect	significant reduction	significantly decreased	had no effect	two-fold increase	not in KO	had an effect	≤ 5	increase in the number of BrdU positive cells in the DG ([2]; after either 11 or 28 days of treatment, vs vehicle): 60%; number of BrdU positive cells in the DG ([2]; animals treated for 5 days): had no effect; cell proliferation after irradiation ([2]; irradiated animals, chronic treatment): had no effect; cell proliferation in the SGZ ([2]; non-irradiated mice, chronic treatment): increased cell proliferation; percentage of BrdU-positive cells that expressed GFAP [3, 13]: 15±3%; percentage of BrdU-positive cells that expressed NeuN [3, 13]: 70±2%; state of the fur (coat score) ([5]; irradiated animals): absent; weight loss induced by stress ([5]; irradiated animals): blocked this effect; grooming latency ([5]; irradiated mice): not in irradiated mice; state of the fur (coat score) ([5]; sham animals): significantly improved; weight loss induced by stress ([5]; sham animals): trend to reverse the weight loss; grooming latency ([5]; sham mice): decreased; cell proliferation in the SVZ [6]: had no effect
CCCN(CCC)C1CCc2cccc(O)c2C1 (stereo not shown) [8-OH-DPAT, 8-hydroxy-2-(di-n-propylamino) tetralin]	–	–	–	–	–	–	–	–	–	–	–	latency to feed ([1]; 5-HT1A receptor KO mice, 28 days s.c. osmotic mini pumps, 1 mg/kg/day, vs sham): ineffective; latency to feed ([1]; WT mice, 28 days s.c. osmotic mini pumps, 1 mg/kg/day, vs sham): significantly decreased; cell proliferation (BrdU-labeled cells in the SGZ) ([2]; 5-HT1A receptor KO mice, chronic treatment): not observed; cell proliferation (BrdU-labeled cells in the SGZ) ([2]; WT mice, chronic treatment): increase in cell proliferation
NCCC(Oc1ccc(C(F)(F)F)cc1)c1ccccc1 (stereo not shown) [nor-fluoxetine]	–	–	–	–	–	–	–	–	–	–	≤ 5	–
CNCCCN1c2ccccc2CCc2ccccc21 [desipramine, Desipramine]	effective	–	significant decreases	–	–	significantly decreased	–	–	–	–	≤ 5	–
O=C(CCCN1CCC(O)(c2ccc(Cl)cc2)CC1)c1ccc(F)cc1 [Haloperidol]	–	–	ineffective	–	–	–	–	–	–	–	–	–
